The values below come from patent publication US11332712B2, “Cell culture media and method for culturing breast cancer cells” (UNIVERSITY OF MIAMI, priority 2013, dated 2022).

“Also recorded” adds a separate entry of the source.

One test concerns human breast tumor cells. Briefly: Culture of human breast tumor cells, effect of medium components (Example 1). The conditions noted are these: preliminary experiments; compared to Retinol. Format: cell-based. How it is done:
The base WIT cell culture medium contains 0.1 mg/L Calciferol (vitamin D2) and this medium is supplemented with 2-5% fetal bovine serum (FBS) to culture human ovarian carcinoma cells (WIT-OC medium). It was hypothesized that both of these components should be removed from the cell culture medium for the successful culture of human breast cancer cells because FBS contains vitamins and hormones such as vitamin D and androgens. […] Thus, charcoal stripped fetal bovine serum (csFBS) was utilized to culture breast tumor cells because activated carbon removes non-polar material such as lipophilic (lipid-related) materials (virus, certain growth factors, hormones and cytokines) regardless of molecular weight but has little effect on salts, glucose, amino acids, etc. The WIT-OC medium also contained vitamin A acetate (Retinol) which is a weaker form of vitamin A, compared to all-trans-retinoic acid (ATRA).
Thus, in order to formulate a cell culture medium optimized to culture human breast tumor cells, as opposed to ovarian tumors, and other tumors, a WIT cell culture medium was prepared without any vitamin D, vitamin A, or androgens, and this medium was supplemented 100 nM ATRA, and 0.5-2% charcoal stripped fetal bovine serum (csFBS). We refer to this medium as WIT-BC, or WIT-BCe when estrogen is added.

Test [1] deals with breast cancer cell lines (T47D, ZR751, MCF7 and BT474). Put plainly: Breast cancer cell line proliferation assay with and without AR agonist (FIG. 8), trypan blue/Cellometer count. Format: cell-based. Particulars: 10 nM with 17 beta-Estradiol (10 nM), phenol-red free DMEM with 5% csFBS, 4 days. Here is the method: Four different breast cancer cell lines (T47D, ZR751, MCF7 and BT474) were cultured both with and without AR agonist […]. […] After 3 days, an AR agonist R1881 (10 nM) and 17 beta-Estradiol (10 nM) were added to the media. […] All the conditions were carried out in triplicate and the experiments were repeated at least twice.

Turning to `CC1=C(/C=C/C(C)=C/C=C/C(C)=C/C(=O)O)C(C)(C)CCC1` [ATRA, all-trans-retinoic acid], the “effect on growth/culture of breast tumor cells” value in the test with human breast tumor cells is on record as “promoting the growth of the breast tumor cells; also recorded: needed for the optimum culture”.
In the case of `C[C@]1(O)CC[C@H]2[C@@H]3CCC4=CC(=O)CCC4=C3C=C[C@@]21C` [R1881, methyltrienolone], the “effect on breast cancer cell proliferation” value in test [1] is recorded as “inhibitory effect”.
